Reference: article PMC6222669, “The Inhibitory Effect of Flavonoid Aglycones on the Metabolic Activity of CYP3A4 Enzyme” (Molecules : A Journal of Synthetic Chemistry and Natural …, 2018)
Read-outs that look alike come from different tables or passages of the source. One block for each compound: values may come before it.

Tests used:
CYP3A4 [1] = target: T1, CYP3A4 (Homo sapiens, UniProt P08684); assay: Direct inhibition of CYP3A4 (no preincubation)
Description: (§1) Incubation mixture contained 5 pmol of the CYP3A4 enzyme.
(§2) If metabolism-dependent inhibition was determined, time dependent inhibition was assessed by preincubating flavonoids and enzymes, after which residual activity was determined by adding NADPH generating system along with substrate. In this instance, the direct inhibition was also tested without preincubation, i.e., NADPH generating system, was added to incubation mixture containing flavonoid and substrate.
(§3) All incubations were conducted in triplicate.

CYP3A4 [2] = target: T1, CYP3A4; assay: Time dependent inhibition of CYP3A4 (preincubation without NADPH); conditions: 1 µM flavonoid; for Residual CYP3A4 activity: time dependent inhibition assay, preincubation without NADPH; for time dependent inhibition observed or not: confirmed in direct inhibition assay
Description: as §1, §2, §3

CYP3A4 [3] = target: T1, CYP3A4
CYP3A4 [4] = conditions: cited from earlier work
CYP3A4 [5] = target: T1, CYP3A4; assay: in vitro; conditions: pH 7.4
CYP3A4 [6] = target: T1, CYP3A4; assay: Metabolism dependent inhibition of CYP3A4 (testosterone 6β-hydroxylation, preincubation with NADPH generating system); conditions: for type of inhibition: concluded from metabolism dependent, time dependent and direct inhibition assays; for activity at 15 min, 1 µM / inhibition at 15 min, 1 µM: human, pH 7.4, probe testosterone (200 µM; 6β-hydroxylation)
CYP3A4 [7] = conditions: cited from earlier work; remark: listed apart in the source
CYP3A4 [8] = target: T1, CYP3A4; parameters: purchased Thermo Fisher Scientific (Waltham, MA, USA); host or cells: recombinant baculovirus system (baculosomes); method as in ref 54 (Obermeier et al.); conditions: nifedipine oxidation, human liver microsomes, uncompetitive; ref 54 (Obermeier et al.); read-out: inhibition constant; cited from earlier work
CYP3A4 [9] = target: T1, CYP3A4; parameters: purchased Thermo Fisher Scientific (Waltham, MA, USA); host or cells: recombinant baculovirus system (baculosomes); method as in ref 55 (Takanaga et al.); conditions: testosterone marker substrate; human liver microsomes and recombinant CYP3A4; ref 55 (Takanaga et al.); cited from earlier work
CYP3A4 [10] = tested on: CYP3A4; parameters: method as in ref 65 (von Moltke et al.); conditions: ref 65 (von Moltke et al.); read-out: concentration giving 50% inhibition; cited from earlier work
CYP3A4 induction = tested on: CYP3A4 induction; parameters: method as in ref 64 (Li et al.); conditions: through PXR, CAR and AhR; ref 64 (Li et al.); cited from earlier work
CYP3A4 [11] = tested on: CYP3A4; parameters: method as in ref 60 (Ding et al.); conditions: HepG2 cell line; ref 60 (Ding et al.); cited from earlier work
porcine cytochrome p450 = conditions: cited from earlier work; for Ki: competitive, ref 61 (Ekstrand et al.), read-out: inhibition constant

T1 sequence (P08684 2-503 limits assumed): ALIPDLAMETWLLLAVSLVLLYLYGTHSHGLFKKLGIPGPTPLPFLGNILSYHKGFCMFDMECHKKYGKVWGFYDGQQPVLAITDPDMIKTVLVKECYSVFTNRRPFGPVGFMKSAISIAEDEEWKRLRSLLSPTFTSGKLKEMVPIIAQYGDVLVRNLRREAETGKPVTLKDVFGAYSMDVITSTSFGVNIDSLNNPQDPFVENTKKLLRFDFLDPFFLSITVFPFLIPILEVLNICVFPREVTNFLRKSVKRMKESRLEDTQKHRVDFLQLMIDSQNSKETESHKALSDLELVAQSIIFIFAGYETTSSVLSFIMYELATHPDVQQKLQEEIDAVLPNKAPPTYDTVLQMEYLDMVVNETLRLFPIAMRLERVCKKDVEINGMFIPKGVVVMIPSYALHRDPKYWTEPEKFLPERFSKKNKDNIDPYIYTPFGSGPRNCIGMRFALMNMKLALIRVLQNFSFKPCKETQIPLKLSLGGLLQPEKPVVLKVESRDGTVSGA

Structure (SMILES): O=c1cc(-c2ccccc2)oc2cc(O)cc(O)c12 [Chrysin]
residual enzyme activity (CYP3A4 [1]; human, 30 min, 1 µM, pH 7.4): 54 ± 23%
Residual CYP3A4 activity (CYP3A4 [2]): 45 ± 3%
type of inhibition (CYP3A4 [3]): combined irreversible and reversible inhibition
effect on 1′-hydroxilation of midazolam (CYP3A4 [4]): inhibition of CYP3A4 activity was not observed
activity at 15 min, 1 µM (CYP3A4 [5]): 17 ± 3%

Structure (SMILES): O=c1cc(-c2ccc(O)cc2)oc2cc(O)cc(O)c12 [Apigenin]
residual enzyme activity (CYP3A4 [1]; human, 30 min, 1 µM, pH 7.4): 35 ± 18%
Residual CYP3A4 activity (CYP3A4 [2]): 34 ± 10%
type of inhibition (CYP3A4 [3]): reversible inhibition
activity at 15 min, 1 µM (CYP3A4 [5]): 24 ± 3%
inhibition at 15 min, 1 µM (CYP3A4 [5]): 76%

Structure (SMILES): O=c1c(O)c(-c2ccccc2)oc2ccc(O)cc12 [3,6-dihydroxyflav., 3,6-dihydroxyflavon]
activity at 15 min, 1 µM (CYP3A4 [6]): 100 ± 14%

Structure (SMILES): O=c1cc(-c2ccccc2)oc2ccccc12 [Flavone]
activity at 15 min, 1 µM (CYP3A4 [6]): 81 ± 16%
effect on 1′-hydroxilation of midazolam (CYP3A4 [4]): stimulate, rather than inhibit

Structure (SMILES): COc1ccc(-c2cc(=O)c3c(O)cc(O)cc3o2)cc1 [Acacetin]
type of inhibition (CYP3A4 [6]): combined irreversible and reversible inhibition
activity at 15 min, 1 µM (CYP3A4 [6]): 5 ± 4%
inhibition at 15 min, 1 µM (CYP3A4 [6]): 95%
residual enzyme activity (CYP3A4 [1]; 1 µM flavonoid, direct inhibition assay, no preincubation): 46 ± 6%
Residual CYP3A4 activity (CYP3A4 [2]): 57 ± 10%

Structure (SMILES): O=c1cc(-c2ccccc2)oc2ccc(O)cc12 [6-hydroxyflavone]
activity at 15 min, 1 µM (CYP3A4 [6]): 83 ± 14%

Structure (SMILES): COc1cc(OC)c2c(=O)cc(-c3ccccc3)oc2c1 [Chrysin-dimethylether]
type of inhibition (CYP3A4 [6]): pure irreversible inhibition
activity at 15 min, 1 µM (CYP3A4 [6]): 61 ± 21%
time dependent inhibition observed or not (CYP3A4 [2]): No time dependent inhibition

Structure (SMILES): COc1cc(O)c2c(=O)c(-c3ccc(O)cc3)coc2c1 [Prunetin]
activity at 15 min, 1 µM (CYP3A4 [6]): 74 ± 14%

Structure (SMILES): O=c1cc(-c2ccccc2)oc2cc(O)ccc12 [7-hydroxyflavone]
activity at 15 min, 1 µM (CYP3A4 [6]): 78 ± 14%

Structure (SMILES): O=c1c(O)c(-c2ccccc2)oc2cc(O)ccc12 [3,7-dihydroxyflav., 3,7-dihydroxyflavon]
activity at 15 min, 1 µM (CYP3A4 [6]): 91 ± 27%

Structure (SMILES): COc1cc(-c2oc3cc(O)cc(O)c3c(=O)c2O)ccc1O [Isohramnetin, Isorhamnetin]
type of inhibition (CYP3A4 [6]): pure irreversible inhibition
activity at 15 min, 1 µM (CYP3A4 [6]): 73 ± 6%
time dependent inhibition observed or not (CYP3A4 [2]): No time dependent inhibition
change in activity of CYP3A4 (CYP3A4 [11]): did not observe change in activity
Ki (porcine cytochrome p450; female pigs): 94 µM
Ki (porcine cytochrome p450; male pigs): 71 µM
competitive inhibition at low concentration (porcine cytochrome p450; under 16 µM concentration): no competitive inhibition was observed

More lines, main results first:

type of inhibition (CYP3A4 [6]): pure irreversible inhibition
activity at 15 min, 1 µM (CYP3A4 [6]): 50 ± 15%
inhibition at 15 min, 1 µM (CYP3A4 [6]): 50%
time dependent inhibition observed or not (CYP3A4 [2]): No time dependent inhibition
Structure (SMILES): O=C1C[C@@H](c2ccccc2)Oc2cc(O)cc(O)c21 [Pinocembrin]

activity at 15 min, 1 µM (CYP3A4 [6]): 117 ± 84%
Structure (SMILES): COc1cc(O)c2c(=O)c(O)c(-c3ccc(O)c(O)c3)oc2c1 [Rhamnetin]

activity at 15 min, 1 µM (CYP3A4 [6]): 72 ± 24%
Structure (SMILES): O=c1c(-c2ccc(O)cc2)coc2cc(O)cc(O)c12 [Genistein]

activity at 15 min, 1 µM (CYP3A4 [6]): 102 ± 15%
Structure (SMILES): COc1cc(O)c2c(=O)cc(-c3ccccc3)oc2c1 [Techtocrysin]

activity at 15 min, 1 µM (CYP3A4 [6]): 83 ± 2%
Structure (SMILES): COc1cc(O)c2c(c1)OC(c1ccccc1)CC2=O (stereo not drawn) [Pinocembrin-7-methylether]

activity at 15 min, 1 µM (CYP3A4 [6]): 48 ± 24%
Structure (SMILES): O=c1c(O)c(-c2ccccc2)oc2cc(O)cc(O)c12 [Galangin]

activity at 15 min, 1 µM (CYP3A4 [6]): 126 ± 10%
Structure (SMILES): O=c1c(O)c(-c2ccc(O)c(O)c2)oc2cc(O)cc(O)c12 [Quercetin]

activity at 15 min, 1 µM (CYP3A4 [6]): 133 ± 35%
Structure (SMILES): O=c1c(O)c(-c2cc(O)c(O)c(O)c2)oc2cc(O)cc(O)c12 [Myricetin]

activity at 15 min, 1 µM (CYP3A4 [5]): 49 ± 19%
Structure (SMILES): COc1ccc([C@@H]2CC(=O)c3c(O)cc(O)cc3O2)cc1O [Hesperetin]

activity at 15 min, 1 µM (CYP3A4 [6]): 101 ± 14%
Structure (SMILES): O=c1c(O)c(-c2ccc(O)cc2)oc2cc(O)cc(O)c12 [Kaempferol]

activity at 15 min, 1 µM (CYP3A4 [5]): 94 ± 45%
Structure (SMILES): COc1cc(O)c2c(c1)O[C@H](c1ccc(O)cc1)CC2=O [Sakuranetin]

time dependent inhibition observed or not (CYP3A4 [2]): No time dependent inhibition
type of inhibition (CYP3A4 [3]): pure irreversible inhibition
activity at 15 min, 1 µM (CYP3A4 [5]): 42 ± 3%
Structure (SMILES): COc1ccc(-c2cc(=O)c3c(OC)c(OC)c(OC)c(OC)c3o2)cc1 [Tangeretin]
Ki (CYP3A4 [8]): 72 µM
influence on CYP3A4 activity (CYP3A4 [9]): no influence
effect on 1′-hydroxilation of midazolam (CYP3A4 [4]): stimulate, rather than inhibit

activity at 15 min, 1 µM (CYP3A4 [6]): 112 ± 31%
Structure (SMILES): O=c1cc(-c2ccc(O)c(O)c2)oc2cc(O)cc(O)c12 [Luteolin]

activity at 15 min, 1 µM (CYP3A4 [6]): 195 ± 29%
Structure (SMILES): COc1ccc(-c2oc3cc(O)cc(O)c3c(=O)c2O)cc1O [Tamarixetin]
IC50 (CYP3A4 [10]): < 10 µM
influence on CYP3A4 induction (CYP3A4 induction): no influence

activity at 15 min, 1 µM (CYP3A4 [6]): 122 ± 8%
Structure (SMILES): O=c1c(O)c(-c2ccc(O)cc2O)oc2cc(O)cc(O)c12 [Morin]

activity at 15 min, 1 µM (CYP3A4 [6]): 65 ± 24%
Structure (SMILES): O=C1C[C@@H](c2ccc(O)cc2)Oc2cc(O)cc(O)c21 [Naringenin]
